Source: US8617818B2, “Compositions and methods for diagnosis and prognosis of cancer and progression, and for screening anti-cancer agents” (Tufts Medical Center, priority 2009, dated 2013)

System: MCF10A cells
Test: Transwell migration assay
Assay type: cell-based, human
Settings: TGFβ 20 ng/mL
Procedure: Transwell migration assays were performed according to Irie et al., 2005 J. Cell Biol. 171: 1023. MCF10A cells were transfected with a negative control siRNA designed to have no sequence similarity to a human transcript sequence (#AM4611) or siRNAs for Akt1 (#S660) or Akt2 (#S1216), or siRNAs for both Akt 1 and Akt2 (50 nM). Twenty four hours after transfection, cells were cultured overnight in assay medium (MCF10A growth medium containing 2% serum±TGFβ (20 ng/mL)). Sixteen hours later, cells were trypsinized and 10^5 cells were added to the top chambers of
24-well transwell plates (8 μm pore size; BD Bioscience, Bedford, Mass.). The bottom chambers were filled with assay medium. […] The significance of variability between a given group and its corresponding control was determined with the unpaired t test.
The mRNAs encoding Akt1 and Akt2, which are present in similar abundance in untransfected MCF10A cells (FIG. 10), were respectively knocked down by transfection with small interfering RNA (siRNA) directed against Akt1 or Akt2. […] After transfection with these siRNAs, the cells were analyzed for the abundance of Zeb1, Zeb2, and E-cadherin before and 24 hours after treatment with TGFβ. […] Parallel cultures of similarly treated cells were therefore used to measured cell migration by means of a Transwell cell migration assay.

TGFβ was tested, and the “enhancement of cell migration” value (Akt1 siRNA-transfected MCF10A cells) was 22 times and the “enhancement of cell migration” value (untransfected MCF10A cells) was 7.7 times.
